In brackets after ≈: the same amount, converted by molar mass. Several values for one entry are separate records, joined by “and”; a condition that tells them apart may be missing. Identical values can stand only once. Like-named read-outs stand apart in the source and are kept apart here. Where a SMILES comes first, the peptide text is derived from it.
Experiments:
[1] = system: E. coli Sens. 25922; type: cell-based, Escherichia coli
Protocol: (§1) In order to determine the MIC values of the peptides, growth and inhibition of various bacteria were monitored after treatment with the peptides of the invention (Table 6).
(§2) E. coli bacteria were cultured with or without OMN6 in increasing concentrations of 0.8-200 μM and with or without Fetal Bovine Serum 10% for 17-20 hours. The growth of the bacteria was continuously monitored via spectrophotometry at 600 nm. As bacterial growth progresses, OD600 nm values rise, and where the growth is inhibited OD600 nm values remain constant.
(§3) The experimental system and parameters described here were used to determine the MIC values of OMN2, OMN6, OMN7 and OMN11 on various bacteria strains (Table 7 and Table 8).

[2] = system: E. coli ESBL BAA-198; type: cell-based, Escherichia coli
Protocol: as §1, §2, §3

[3] = system: E. coli ESBL BAA-198; type: cell-based, Escherichia coli; remark: listed apart in the source
Protocol: (§4) In order to determine the Minimal Bactericidal Concentration (MBC) values of the peptides, colony formation of various bacteria strains was monitored and determined after treatment with the peptides of the invention. Multi-Drug Resistant A. baumannii bacteria were cultured with or without OMN6 in increasing concentrations, as is detailed in FIG. 6 and Example 6. Immediately afterwards, samples of each experimental group were diluted to 1×10^4 to 1×10^6 as necessary, and further, the samples were plated on appropriate medium-agar plates. All the plates were incubated at 37° C. for 24-48 hours. Colonies were counted and CFU/ml in the original sample, prior to plating, were calculated and determined. An example of the plates, after incubation, is presented in FIG. 7 where the plate on the left side of the image is the CTRL sample treated with DDW and in the right side of the image increasing concentrations of OMN6 are presented, as specified therein.
(§5) The experimental system and parameters described here were used to determine the MBC values of OMN2, OMN6, OMN7 and OMN11 on various bacteria strains with and without the supplementation of 10% FBS (Table 6 and Table 8).

[4] = system: A. baumannii BAA-1793; type: cell-based, Acinetobacter baumannii; details: FIG. 7
Protocol: as §4, §5

[5] = Preliminary IP safety in mice; type: in vivo
Protocol: IP administration of OMN6: OMN6 was administered IP to mice in order to evaluate and quantitate any toxic effects if present. OMN6 peptide was administered via intraperitoneal injection according to concentrations and groups detailed in Table 10.
Mice used in this experiment: Outbred Hsd: ICR (CD-1®)—weight 18-20 g. Saline solution (0.9% NaCl) supplemented with 4 mM C2H3NaO2 (sodium acetate) as sham treatment, or OMN6 dissolved in saline were administered as specified in […] A total volume of 100 μl was administered to each animal.
Mortality of mice in experiment group was monitored in comparison to a Sham (CTRL) group. Food and water consumption, post treatment, was monitored by individual weight measurements once every two days. At the end of the experiment, blood was taken from all animals, and a 200 μl volume of complete blood was separated and plasma was analyzed for erythrocyte hemolysis.
Experimental Map: • 1. Mice (six per group) were given a single-dose administration on day 1, according to group specification (Table 10). Food and water consumption (weight analysis) along with mortality of mice in all groups were monitored for 3 days post treatment. At the end of the four day trial, the animals were sacrificed. • 2. Free Hgb (hemoglobin) assay was performed on day 4, on all samples from all groups, for erythrocyte hemolysis analysis. • 3. Water/food availability, temperature and other conditions remained unchanged between the groups for the entire four day trial. • 4. The Erythrocyte hemolysis analysis was performed via hemoglobin assay kit (Sigma-Aldrich, 3 Plaut St. Rehovot, Israel).

[6] = system: Escherichia coli (ATCC BAA-198) ESBL; assay: Efficacy in mouse model of subcutaneous infection with E. coli; type: in vivo, mice
Protocol: Animals: Healthy adult female mice weighing 16-20 g were used. CD-I outbred (Harlan Breeding Labs, Jerusalem, Israel) were used in all experiments. Animals were caged in groups of 5-10 and were maintained on chow (Ralston Purina) and water ad-libitum.
Bacteria: Escherichia coli (ATCC BAA-198) is an extended spectrum beta-lactamase (ESBL) TEM-26 multi drug resistant strain. Stock cultures were grown in Tryptic Soy Broth (TSB) (Becton, Dickinson and company BD. Maryland, USA) at 37°.
Colonies were counted after incubation for 24 hours on TSB-agar (BD), and results were expressed as colony forming units (CFU)/ml.
Inoculum: All broth cultures were adjusted to 1×10^8 CFU/animal for the challenge dose by adding TSB to a final volume of 50 μl. Bacteria were administered via subcutaneous (SC) injection with tuberculin syringes capped with 29-gauge needles. Recipient animals had the right flank shaved and depilated with hair remover cream (ORNA19, Israel). To inject the inoculum, the needle was inserted SC 1 cm lateral to the thoracic spine and just anterior to the right hind extremity. The needle was tracked anteriorly and SC for 1 cm; then 50 μl of inoculum was injected.
OMN6 peptide at 8 mg/kg in a total volume of 80 μl was injected SC after one hour to the same area. All animals appeared well and fully active within 2-4 hours after this procedure. All animals were monitored for food and water consumption, mortality and any other adverse effects for the entire 5-day duration of the experiment.
Evaluation of Bacterial Burden: A 2 cm^2 area of skin was incised and the inner side, where the abscess was located, was scraped with a sterile scalpel. Scraped tissue was filtered through a 40 μm cell-strainer. Filtered mass was collected, centrifuged at 500 RPM for 2 minutes and a sample from the supernatant was plated on TBS-agar plates for 24 hours at 37°. Colonies were then counted and results are presented as CFU/abscess (see FIG. 10A).
Evaluation of Abscesses: Animals were assessed for the presence and size of abscesses on day 5. The animals were anesthetized (Ketamine 225 mg/kg/Xylazine 6 mg/kg BW IP), the right hind flank area was gently exposed by aseptic technique. Abscesses were recorded and then measured by calipers: the product of the longest diameter (D) and corresponding perpendicular diameter (d) was determined as “abscess size” (D×d) findings presented in mm^2 (see FIG. 10B).

[7] = IP single dose 16 mg/kg, four-day experiment
[8] = mice, SC 1×10^8 CFU E. coli ESBL, OMN6 8 mg/kg SC after one hour, day 5

With CC[C@H](C)[C@H](NC(=O)CNC(=O)[C@H](CC(=O)O)NC(=O)[C@H](CCCNC(=N)N)NC(=O)[C@@H](NC(=O)[C@H](CC(N)=O)NC(=O)[C@H](CCC(N)=O)NC(=O)CNC(=O)[C@@H](NC(=O)[C@H](CCCCN)NC(=O)[C@H](CCC(=O)O)NC(=O)[C@@H](NC(=O)[C@H](CCCCN)NC(=O)[C@H](CCCCN)NC(=O)[C@H](Cc1ccccc1)NC(=O)[C@H](CC(C)C)NC(=O)[C@H](CCCCN)NC(=O)[C@H](Cc1c[nH]c2ccccc12)NC(=O)[C@H](CCCCN)NC(=O)[C@H](CS)NC(=O)[C@@H](N)CCSC)[C@@H](C)CC)C(C)C)[C@@H](C)CC)C(=O)N[C@H](C(=O)N[C@@H](CCCCN)C(=O)N[C@@H](C)C(=O)NCC(=O)N1CCC[C@H]1C(=O)N[C@@H](C)C(=O)N[C@H](C(=O)N[C@@H](C)C(=O)N[C@H](C(=O)N[C@H](C(=O)NCC(=O)N[C@@H](CCC(N)=O)C(=O)N[C@@H](C)C(=O)N[C@H](C(=O)N[C@@H](CCC(N)=O)C(=O)N[C@H](C(=O)N[C@@H](C)C(=O)N[C@@H](CCCCN)C(=O)N[C@@H](CS)C(N)=O)[C@@H](C)CC)[C@@H](C)O)C(C)C)C(C)C)C(C)C)[C@@H](C)CC [OMN6] (H-MCKWKLFKKIEKVGQNIRDGIIKAGPAVAVVGQATQIAKC-NH2; N-terminus and C-terminus assumed) the MIC value ([1]; Sens. 25922) was 6.25 µM (≈ 27.1 µg/mL), the “Minimal Inhibitory Conc. (MIC)” value ([1]; Sens. 25922, 17 h) was 12.5 µM and the MIC [2] was 5 µM (≈ 21.7 µg/mL). The MBC [3] was 5 µM (≈ 21.7 µg/mL), the “Colony formation of Multi-Drug Resistant A. baumannii after plating” value ([4]; OMN6 0.62 μM and 1.25 μM) was “no inhibition of growth” and the “Colony formation of Multi-Drug Resistant A. baumannii after plating” value ([4]; OMN6 2.5 μM, 5 μM and 10 μM) was “void of colonies”. For the same compound, the Histological analysis ([5]; IP single dose 16 mg/kg (data not shown)) was “No evidence of pathological changes or aberrations”, the “Hemolysis of erythrocytes (Free Hgb assay)” value ([5]; IP single dose 16 mg/kg, day 4) was “No evidence of hemolysis” and the “Clinical signs (diarrhea, bloody diarrhea, stand-on-end hair, apathy or restlessness)” value [5, 7] was “not observed”. For the same compound, the Mortality [5, 7] was “not observed”, the “Toxic or otherwise adverse effects” value [5, 7] was “does not exert any toxic or otherwise adverse effects” and the Weight-loss [5, 7] was “not observed”. The “Decrease in abscess size” value ([6]; OMN6 8 mg/kg SC versus sham-saline) was 80%, the “Decrease in bacteria burden” value ([6]; OMN6 8 mg/kg SC versus sham-saline, 8 mg/kg) was 93.3% and 94% and the “Average size of the abscesses (D×d)” value [6, 8] was 7.25 mm^2. It also gave a Bacteria burden [6, 8] of 20 CFU/mouse.
